Reference: publication PMC3883354 (Bioorganic & medicinal chemistry, 2013)

Biological target: T1, human GVIA iPLA2 (Homo sapiens, UniProt O60733)
T1 sequence (O60733 1-806): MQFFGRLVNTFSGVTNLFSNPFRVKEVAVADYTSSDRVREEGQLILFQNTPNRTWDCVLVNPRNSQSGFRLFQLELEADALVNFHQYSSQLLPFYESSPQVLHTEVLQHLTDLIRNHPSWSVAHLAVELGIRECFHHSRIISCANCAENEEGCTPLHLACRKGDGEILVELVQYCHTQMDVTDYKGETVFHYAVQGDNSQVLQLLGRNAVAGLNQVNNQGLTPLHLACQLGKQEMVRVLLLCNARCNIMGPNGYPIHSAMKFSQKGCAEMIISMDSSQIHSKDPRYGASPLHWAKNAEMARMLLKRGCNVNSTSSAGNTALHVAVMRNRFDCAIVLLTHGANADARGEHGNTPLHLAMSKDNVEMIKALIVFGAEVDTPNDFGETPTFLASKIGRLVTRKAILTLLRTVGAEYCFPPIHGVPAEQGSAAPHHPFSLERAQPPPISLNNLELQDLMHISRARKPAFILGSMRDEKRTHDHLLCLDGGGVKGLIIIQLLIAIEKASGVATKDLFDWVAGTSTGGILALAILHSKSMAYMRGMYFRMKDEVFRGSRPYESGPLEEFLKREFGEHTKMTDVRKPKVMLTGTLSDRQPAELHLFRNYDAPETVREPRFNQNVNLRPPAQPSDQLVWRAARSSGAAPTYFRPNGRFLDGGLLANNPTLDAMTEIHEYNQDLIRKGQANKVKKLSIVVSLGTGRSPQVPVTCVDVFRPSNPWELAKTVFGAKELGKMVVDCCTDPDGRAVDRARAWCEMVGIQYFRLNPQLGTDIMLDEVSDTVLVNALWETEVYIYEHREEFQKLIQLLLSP
Assay: mixed micelle-based modified Dole assay, GVIA iPLA2 inhibition
Assay type: biochemical
Conditions: for fold weaker towards iPLA2 than FKGK11: compared with FKGK11

Row | Compound | fold weaker towards iPLA2 than FKGK11 | times weaker inhibitor towards GVIA iPLA2 than FKGK18 (compared with FKGK18) [times]
1 | O=C(CCCCc1ccc(-c2ccccc2)cc1)C(F)(F)C(F)(F)F [6e, 7-(Biphenyl-4-yl)-1,1,1,2,2-pentafluoroheptan-3-one] | ninefold weaker | 
2 | O=C(CCCCc1ccc(-c2ccccc2)cc1)C(F)(F)F [5e, 6-(Biphenyl-4-yl)-1,1,1-trifluorohexan-2-one] | 13 fold | 
3 | O=C(CCCCc1cccc2ccccc12)C(F)(F)F [5a, 1,1,1-Trifluoro-6-(naphthalen-1-yl)hexan-2-one] |  | 9
